For data set [1], the system named is S. aureus (ATCC 29213). Nature of the data set: Minimum bactericidal concentration (MBC) assay, S. aureus. It is filed as cell-based. As to conditions: Staphylococcus aureus, S. aureus. The procedure:
(§1) (f) Determination of MBC: MBC was determined by sampling all the macroscopically clear wells. Before sampling, the wells were gently mixed by flushing them with a pipette, and a 5 μL was removed and placed on an agar plate suitable for the growth of the microbe being tested. The agar plate was divided into three parts to test three trials of a single concentration. The sample was allowed to be absorbed into the agar for ˜30 minutes. The plates were then incubated for 24 hours at 37° C. After incubation, the plates were examined to determine the compound concentration at which 99.9% killing was achieved.

In a further data set the test system is MRSA (ATCC 43300). Nature of the data set: Minimum bactericidal concentration (MBC) assay, MRSA. As to conditions: Staphylococcus aureus, MRSA. It is filed as cell-based. The procedure: as §1
In data set [2] the test system is E. faecalis (ATCC 29212). Nature of the data set: Minimum bactericidal concentration (MBC) assay, E. faecalis. It is filed as cell-based, Enterococcus faecalis. As to conditions: for MBC: Enterococcus faecalis, ATCC29212. Here is the method: as §1
In the next data set the test system is VREF (ATCC 51299). Nature of the data set: Minimum bactericidal concentration (MBC) assay, VREF. It is filed as cell-based, Enterococcus faecalis. As to conditions: VREF; for MBC: Enterococcus faecalis, ATCC51299, read-out: MBC (bactericidal activity). Here is the method: as §1
A short description of the next data set: Solubility in DMSO. It is filed as physicochemical.
Data set [3] relates to gram positive and negative bacteria. Kind of data set: Antibacterial testing against gram positive and negative bacteria. Type of data set: cell-based. Here is the method: In addition to the harmaline dimers compounds, other bicyclic indole compounds (203, 233, 476/6 and 504/6,) were also tested against gram positive and negative bacteria. Particularly, the indole ethyl urea molecules 203, 233 and the tryptamide dimer molecules 476/6, 504/6, as shown below, were tested.

The subject of data set [4] is engineered Salmonella typhimurium strain (umuC, β-galactosidase). As to conditions: without S9 activation.
Excerpt: The EBPI UMU-ChromoTest™ assay is used for the detection and quantification of genotoxicity of compounds and is based on the International Organization for Standardization protocol ISO 13829. The UMU-ChromoTest™ assay utilizes a native bacterial mechanism for the detection of compound genotoxicity. The bacteria used for the assay is an engineered Salmonella typhimurium strain developed to include a gene coding for the β-galactosidase (β-gal) enzyme tethered to the umuC, a damage response gene. DNA damage activates the SOS system to transcribe β-gal proportional to the level of SOS induction. The UMU-ChromoTest™ bacterial strain has modifications to increase sensitivity to genotoxins with (a) increased sensitivity for even limited damage, (b) modified outer membrane of the cell to increase permeability to exogenous materials, and (c) production of a color change on addition to chromogenic substrate (ONPG), which is a quantitative measure of genotoxic damage to bacterial DNA.
Rehydration of Dried Bacteria and Culture Growth: The bacteria were rehydrated and incubated at 37° C. for 16-18 hours. OD600 of the overnight culture should be 0.5 or at least above 0.1 at 600 nm.
Sample Preparation and Plate Setup: The dimer compounds were dissolved in DMSO. All dilution and controls were made in the solvent of 10% DMSO in sterile 0.85% saline. The pH of the compounds was adjusted to 7.0±0.2 before incubation with bacteria to facilitate bacterial growth and prevent degradation of ONPG later in the assay. The solutions of hydrochloric acid and sodium hydroxide were used to adjust pH with minimal addition volumes to prevent excessive sample dilution. Six samples were run at 4 dilutions at a time.
Preliminary Dilution of Bacteria: The overnight bacterial culture was diluted to 50% by performing a reinoculation with 5 mL of overnight growth and 5 mL of fresh Growth media. The reinoculated bacteria was inoculated for 1.5 hours at 37° C. The OD600 should be approximately 80% of the reading from overnight growth or slightly higher.
Preparation of Plate A: Distilled water (180 μL) was added to all wells, except for rows A to F, columns 1 to 3 and row H, columns 1 to 6. Rows A to F are used for 6 compounds per plate. The test compounds (360 μL) were added to the first three wells (three replicates) of the same microplate, such that wells 1-3 were a triplicate set of the highest concertation of test compound (360 μL). Wells 4-12 each contained 180 μL of distilled water. For dilution, half of the contents (180 μL) from wells 1-3 was transferred to wells 4-6 which makes a second triplicate set. For a third dilution, half of the contents from wells 4-6 were transferred to 7-9, and for the fourth triplicate set, half of the contents from wells 7-9 was transferred to 10-12. […]
Data set [5] deals with MRSA: S. aureus resistant to methicillin and oxacillin (ATCC 43300). Kind of data set: Broth microdilution MIC assay, MRSA. The conditions noted are these: Staphylococcus aureus, ATCC43300|MRSA, read-out: MIC (bacterial growth inhibition). Background: Dilution methods test growth across graded concentrations, often in twofold steps.
Description: (§2) The concentration of compound required to visibly stop the growth of bacteria is known as minimum inhibitory concentration (MIC). Different concentrations of the compounds are tested for the exact same number of bacteria, and the growth is monitored with time.
(§3) Bacterial strains were purchased from the American Type Culture Collection (ATCC) for the studies.
(§4) The MIC assay procedure follows the guidelines set by the Clinical Laboratory Sciences Institute (CLSI).
(§5) To do this, bacteria were transferred from pure agar culture, aseptically transferred in 5 mL of Cation-Adjusted Mueller-Hinton Broth (CAMHB). The broth was incubated overnight at 35° C. to stationary phase to achieve a turbidity suspension. A spectrophotometer (SpectraMax ID5) was used to measure the turbidity (optical density—OD at 625 nm). The inoculum was prepared by adjusting the turbidity of overnight culture to 0.5 McFarland, which is equal to the defined number of bacteria 1×10^8 CFU/ml.
(§6) (b) Compound Dilution: All compounds used in the study were dissolved in sterile ultra-pure DMSO (VWR International, PA, USA) and maintained at −80° C. Stock solution of the compound was freshly prepared the day of use or is prepared from a frozen stock solution stored at −80° C. […] The compound solution was prepared at a desired concentration in DMSO, and 1/10 dilution was performed in a sterile CAMHB medium. This 10-fold dilution of stock solution was used for a 2-fold serial dilution in a 96-well plate to observe an inhibitory effect of the compound on bacterial growth. 100 μL of diluted drug solution was transferred to a first column of the 96-well plate. 50 μL of sterile CAMHB was transferred to each well from well 2 to well 12. Next, 50 μL was removed from well 1 and added to well 2. The contents from well 2 were mixed by pipetting up and down. Next, 50 µL were removed from well 2 and added to well 3. This process was continued till well 11 is reached. 50 μL was discarded from the well 11. Each compound concentration was tested in triplicate.
(§7) (c) Inoculation of 96-well plate: The same number of bacteria (1×10^5 CFU/mL) were prepared after 150-fold dilution of 0.5 McFarland inoculum and used to add in the wells of different drug concentrations. 50 μL of working inoculum was carefully added to each well, except the sterility well 12. Mixing is performed by gently flushing the inoculum in and out of the pipette tip four or five times, avoiding splashing and bubble formation.
(§8) (d) Incubation: Plates were incubated at 35° C. for 24 hours without shaking or agitation.
(§9) (e) Determination of MIC: After 18-24 hours of incubation, the plates were read for MIC. SpectraMax iD5 microplate reader was used to measure turbidity at different time points. Turbidity (OD) increases as the bacteria grow over time.
Data set [6] deals with VREF: E. faecalis resistant to vancomycin (ATCC 51299). Kind of data set: Broth microdilution MIC assay, VREF. As to conditions: Enterococcus faecalis.
Description: as §2, §3, §4, §5, §6, §7, §8, §9
The subject of another data set is E. coli (ATCC 25922). Kind of data set: Broth microdilution MIC assay, E. coli. The conditions noted are these: E. coli.
The subject of data set [7] is S. aureus (ATCC 29213). Nature of the data set: Broth microdilution MIC assay, S. aureus. As to conditions: for MIC: Staphylococcus aureus, ATCC29213, read-out: MIC (bacterial growth inhibition), S. aureus; for higher efficacy than harmaline: antibacterial efficacy versus harmaline; for higher antibacterial activity than harmaline dimer without a substitution (GZ440/6): versus GZ440/6.
Description: as §2, §3, §4, §5, §6, §7, §8, §9

Data set [8] deals with E. faecalis (ATCC 29212). Kind of data set: Broth microdilution MIC assay, E. faecalis. The conditions noted are these: Enterococcus faecalis, ATCC29212, read-out: MIC (bacterial growth inhibition).
Description: as §2, §3, §4, §5, §6, §7, §8, §9
In data set [9] the test system is P. aeruginosa (ATCC 10145). Nature of the data set: Broth microdilution MIC assay, P. aeruginosa.
Description: as §2, §3, §4, §5
(b) Compound Dilution: All compounds used in the study were dissolved in sterile ultra-pure DMSO (VWR International, PA, USA) and maintained at −80° C. […]
(e) Determination of MIC: After 18-24 hours of incubation, the plates were read for MIC. SpectraMax iD5 microplate reader was used to measure turbidity at different time points. […]
The subject of data set [10] is Candida albicans (ATCC 18804). Nature of the data set: Antifungal broth microdilution MIC assay. Type of data set: cell-based. As to conditions: Candida albicans, ATCC18804, C. albicans, read-out: MIC (antifungal growth inhibition). The procedure: Synthesized compounds were tested for antifungal activity towards the fungus strain, Candida albicans. […] Different concentrations of the compounds were tested for the exact same number of fungi, and the growth is monitored with time. MIC was determined by using the broth microdilution assay. Fungus strain, C. albicans was purchased from ATCC (ID: 18804) for the studies. […] This solution was used to make a working solution by preparing a 1:50 dilution, followed by a 1:20 dilution, with RPMI 1640 medium to obtain 2× test inoculum. The 2× inoculum is diluted 1:1 to achieve the final inoculum size (0.5×10^3 to 2.5×10^3 cells per mL). RPMI 1640 medium was used with L-glutamine and phenol red as a pH indicator but without bicarbonate and a glucose concentration of 0.2%. […] All plates were then read visually under normal laboratory lighting using a mirror viewer. Wells were scored for the growth compared to that of the drug free control well. Plates were read at 530 nm with subtraction of the blank from the reading of each well. Turbidity (OD) increases as the fungus grows over time.

In data set [11] the test system is SARS-CoV-2 isolate USA-WA1/2020 in Vero-E6 cells. Nature of the data set: Virus plaque formation assay. It is filed as cell-based.
For the next data set, the system named is SARS-CoV-2. Nature of the data set: RT-PCR quantitation of viral copy number. As to conditions: 120 hours after infection. It is filed as cell-based.
The subject of a further data set is Vero-E6 cells. Nature of the data set: CytoTox 96 Nonradioactive Cytotoxicity Assay (LDH release). Background: LDH leaks from cells whose membrane has failed.
The mark [12] stands for this setting: ATCC29213, 24 h, read-out: MBC (kills bacteria).
Setting [13] is: ATCC29213, read-out: MBC (bactericidal activity).
Setting [14] is: ATCC51299, 24 h, read-out: MIC (bacterial growth inhibition).
[15] abbreviates: ATCC51299, 48 h, read-out: MIC (bacterial growth inhibition).
Where [16] appears, read: ATCC51299, read-out: MIC (bacterial growth inhibition).

A word on the MBC: it is the lowest tested concentration that kills the bacteria rather than only halting them. As usually defined, the MIC is the least concentration at which growth counts as inhibited.

Structures are written as SMILES. ≈ marks a conversion by molar mass, not a printed value. Where “and” joins values, the source holds several entries; their conditions need not be identical. Equal values may be shown once. Read-outs that look alike come from different tables or passages of the source. A value given as a limit tells only on which side of the number the result lay.

Description for E. coli (ATCC 25922): as §2, §3, §4, §5, §6, §7, §8, §9

Regarding `COc1ccc2c3c([nH]c2c1)C(CC(CC1=NCCc2c1[nH]c1cc(OC)ccc21)c1c[nH]cn1)=NCC3` [1,1′-(2-(1H-imidazol-4-yl)propane-1,3-diyl)bis(7-methoxy-4,9-dihydro-3Hpyrido[3,4-b]indole)], the MBC in the data set on S. aureus (ATCC 29213) [1] (setting [12]) is 101 µg/mL; with S. aureus (ATCC 29213) [1] (setting [13]), 200 µM; in the data set on MRSA (ATCC 43300) (read-out: MBC) it was 63.3 µg/mL; in the data set with MRSA (ATCC 43300) (read-out: MRSA-MBC), 125 µM; in the data set with E. faecalis (ATCC 29212) [2] it was 200 µM (≈ 101 µg/mL); in the data set with VREF (ATCC 51299), over 127 µg/mL. Also, the “MBC (kills bacteria)” value with E. faecalis (ATCC 29212) [2] worked out at 101.2 µg/mL (≈ 200 µM). Also, the “solubility in DMSO (time to dissolve)” value in the data set “Solubility in DMSO” lay within 30 to 40 min. In data set [3], the bacteriostatic/bactericidal activity result is “show bacteriostatic and bactericidal activity”. In addition, the “genotoxic concentration (not genotoxic up to / toxicity above)” value in [4] is given as “above 85 μM”. Moreover, the MIC in [5] (24 h) was 15.8 µg/mL (≈ 31.2 µM); in [5] (90 h), 31.7 µg/mL (≈ 62.5 µM); in data set [6] (setting [14]), 63.3 µg/mL (≈ 125 µM); in [6] (setting [15]), 127 µg/mL (≈ 250 µM); in data set [6] (setting [16]), over 127 µg/mL; in the data set on S. aureus (ATCC 29213) [7] (time not given), 50.6 µg/mL. Also, the MIC with E. faecalis (ATCC 29212) [8] worked out at 50.6 µg/mL (≈ 99.9 µM). For the same compound, the “MIC (bacterial growth inhibition)” value (against E. coli (ATCC 25922); in data set [9]) was “no inhibition was observed” throughout. In the data set with S. aureus (ATCC 29213) [7], the “higher efficacy than harmaline” value is on record as about 15 fold. Further, in the data set with S. aureus (ATCC 29213) [7], the “higher antibacterial activity than harmaline dimer without a substitution (GZ440/6)” value was determined as 1.75 fold.
For `COc1ccc2c3c([nH]c2c1)C(CC(CC1=NCCc2c1[nH]c1cc(OC)ccc21)c1cccnc1)=NCC3` [GK517.3, 1,1′-(2-(pyridin-3-yl)propane-1,3-diyl)bis(7-methoxy-4,9-dihydro-3H-pyrido[3,4-b]indole)], the MBC with S. aureus (ATCC 29213) [1] (setting [12]) was 104 µg/mL; with S. aureus (ATCC 29213) [1] (setting [13]), 200 µM; with MRSA (ATCC 43300) (read-out: MBC) it was 32.4 µg/mL; with MRSA (ATCC 43300) (read-out: MRSA-MBC), 62.5 µM; with E. faecalis (ATCC 29212) [2], 200 µM (≈ 104 µg/mL); in the data set on VREF (ATCC 51299), 64.7 µg/mL (≈ 125 µM). The “MBC (kills bacteria)” value in the data set on E. faecalis (ATCC 29212) [2] is 103.5 µg/mL (≈ 200 µM). In addition, in the data set “Solubility in DMSO”, the “solubility in DMSO (time to dissolve)” value fell in the range of 10 to 15 min. Further, in data set [3], the bacteriostatic/bactericidal activity entry was “show bacteriostatic and bactericidal activity”. Moreover, the MIC came out at 8 µg/mL (≈ 15.5 µM) in data set [5] (24 h); 16.2 µg/mL (≈ 31.3 µM) in data set [5] (90 h); 32.4 µg/mL (≈ 62.5 µM) in data set [6] (setting [14]); 64.7 µg/mL (≈ 125 µM) in data set [6] (ATCC51299, 90 h, read-out: MIC (bacterial growth inhibition)); 51.7 µg/mL in the data set on S. aureus (ATCC 29213) [7] (time not given); 51.7 µg/mL (≈ 99.9 µM) in the data set on E. faecalis (ATCC 29212) [8]. Also, the “MIC (bacterial growth inhibition)” value (in the data set with E. coli (ATCC 25922); in data set [9]) was “no inhibition was observed” throughout. The “higher efficacy than harmaline” value in the data set on S. aureus (ATCC 29213) [7] is recorded as about 15 fold. Besides, the “higher antibacterial activity than harmaline dimer without a substitution (GZ440/6)” value in the data set on S. aureus (ATCC 29213) [7] amounted to 1.75 fold.
`COc1ccc2c3c([nH]c2c1)C(CC(CC1=NCCc2c1[nH]c1cc(OC)ccc21)c1cncs1)=NCC3` [GK524]: the MBC stood at 65.5 µg/mL in the data set on S. aureus (ATCC 29213) [1] (setting [12]), 125 µM with S. aureus (ATCC 29213) [1] (setting [13]), 32.7 µg/mL with MRSA (ATCC 43300) (read-out: MBC) and 62.5 µM with MRSA (ATCC 43300) (read-out: MRSA-MBC). Moreover, the MIC was 12.2 µg/mL (≈ 23.4 µM) in data set [10] (after 24 hours of incubation), 25 µg/mL (≈ 47.7 µM) in [10] (after 48 hours of incubation), 16.4 µg/mL (≈ 31.2 µM) in data set [5] and 32.7 µg/mL in the data set on S. aureus (ATCC 29213) [7] (time not given). Further, the “solubility in DMSO (time to dissolve)” value in the data set “Solubility in DMSO” is “instantly”. Moreover, the bacteriostatic/bactericidal activity result in data set [3] is “show bacteriostatic and bactericidal activity”. Further, the “MIC (bacterial growth inhibition)” value in the data set with E. coli (ATCC 25922) is recorded as “No bacteriostatic or bactericidal activities were observed”. In the data set on S. aureus (ATCC 29213) [7], the “higher efficacy than harmaline” value is about 15 fold. Moreover, the “higher antibacterial activity than harmaline dimer without a substitution (GZ440/6)” value with S. aureus (ATCC 29213) [7] is 1.75 fold.
In the case of `COc1ccc2c3c([nH]c2c1)C(CCCC1=NCCc2c1[nH]c1cc(OC)ccc21)=NCC3` [GZ440/6], the MBC was found to be 110 µg/mL with MRSA (ATCC 43300) (read-out: MBC) and 250 µM with MRSA (ATCC 43300) (read-out: MRSA-MBC). For the same compound, the “MBC (bactericidal activity)” value with VREF (ATCC 51299) is reported as “No bactericidal action was observed”. Besides, the “inhibition of plaque formation” value in [11] (2.0, 5.0 and 10.0 μM, CoV-2 in Vero-E6 cells at 120 h after infection) is reported as “negligible inhibition”; in data set [11] (at 20 μM and above), “inhibition of plaque formation was significant”. Moreover, the “viral load (viral RNA levels)” value was “decreased viral load” in the data set on SARS-CoV-2 (higher concentrations (20 and 40 μM)); “not in lower concentrations” in the data set with SARS-CoV-2 (lower concentrations). Further, the bacteriostatic/bactericidal activity entry in data set [3] is “show bacteriostatic and bactericidal activity”. Besides, the MIC in data set [5] (24 h) was 27.5 µg/mL (≈ 62.5 µM); in data set [5] (90 h), 55 µg/mL (≈ 125 µM); in data set [6] (setting [14]), 55 µg/mL (≈ 125 µM); in data set [6] (setting [15]), 110 µg/mL (≈ 250 µM); in data set [6] (setting [16]), over 110 µg/mL; in the data set on S. aureus (ATCC 29213) [7], 200 µM. Also, the MIC was 88 µg/mL in the data set on S. aureus (ATCC 29213) [7] (time not given); 88 µg/mL and 200 µM in the data set with E. faecalis (ATCC 29212) [8]. The cytotoxicity entry in the data set on Vero-E6 cells (20 μM and 40 μM) was “no significant cytotoxicity”; in the data set with Vero-E6 cells (Vero-E6 cells, 2.0 μM, 5.0 μM and 10.0 μM), “negligible cytotoxicity”.

(Values after patent US20240002405A1, “ANTIMICROBIAL COMPOUNDS, SYNTHESIS METHODS, AND USES THEREOF” (Ankh Life Sciences Limited, priority 2022, published 2024).)
